Data as given in article PMC9490176 (Frontiers in Pharmacology, 2022).
Where two headings read alike, the source gives them in different places. Blank lines part the entries; values can stand above or below the molecule they belong to.

Columns and labels:
[1] = Stability evaluation in rat plasma (UPLC-MS/MS method validation); assay type: in vitro ADME; conditions: n = 6
Source text: The test method was extensively verified regarding precision, accuracy, and stability, according to the EMA (European Medicines Agency) 2011 and FDA (Food and Drug Administration) 2018 criteria. In six replicates, quality control (QC) samples were generated at low, medium, and high concentrations and were utilized to validate the procedure. This method was designed to conform to EMA and FDA regulatory requirements for bioanalytical methods.

[2] = In vivo pharmacokinetics of pyrotinib in rats with or without azole pretreatment; parameters: species or system Sprague-Dawley rats; conditions: rat; for AUC(0-inf) / AUC(0-t) / CL/F / Cmax / Vd/F: male, Sprague-Dawley, plasma, po, 8 mg/kg; for AUC(0-inf) / AUC(0-t) / CL/F / Cmax / Vd/F / MRT(0-t) / MRT(0-∞) / Tmax / t1/2: 8 mg/kg pyrotinib oral; for AUC(0-inf) / AUC(0-t) / CL/F / Cmax / MRT(0-t) / MRT(0-∞) / Tmax / t1/2: n = 6; for Vd/F: n = 6, read-out: Vz/F
Method: Male Sprague-Dawley rats (180–220 g) were supplied by the Experimental Animal Center of Wenzhou Medical University. The animals were placed in a controlled environment of 20–26°C and 55 ± 15% relative humidity under a 12 h light-dark cycle. Except for the 12-h fasting period before the PK study, all rats were fed a standard rodent diet and freely consumed tap water. All experimental procedures and protocols were reviewed and approved by the Animal Care and Use Committee of the Wenzhou Medical University (No. wydw 2019-650), following the Guidelines for The Care and Use of Laboratory Animals. […] After the last administration of the three azoles or 0.5% CMC-Na (control group), a single dose of 8 mg/kg pyrotinib was administered orally to all rats in each group. Each group consisted of 6 rats. The azole antifungal medication was dissolved in 0.5% carboxymethylcellulose sodium solution (CMC-Na). […] The plasma was obtained by centrifuging the blood samples at 4000 rpm for 10 min at 4°C and stored at −80°C until analysis. The frozen plasma samples were thawed at room temperature and uniformly mixed; 50 μL of plasma sample was removed and mixed with 150 μL acetonitrile-midazolam solution (containing midazolam 200 ng/ml) to precipitate the proteins, followed by vortexing for 30 s and centrifuging at 13,000 rpm for 5 min. Then 150 μL of the supernatant was collected and placed into UPLC vials with 2 μL of sample was subjected to UPLC-MS/MS analysis. GraphPad Prism 7.0 software (GraphPad Software Inc.) was used to calculate the enzyme kinetic parameters of substrates which include Vmax, Km, IC50, Ki, and αKi values. The enzyme inhibition mode was obtained using the Linear Lineweaver-Burk plots. The PK characteristics, maximal plasma concentration (Cmax), time to peak plasma concentration (Tmax), apparent volume of distribution (Vz/F), area under the plasma concentration-time curve (AUC), elimination half-life (t1/2), plasma clearance (Cl/F), and mean residence time (MRT), were calculated using DAS (Drug and Statistics) software (Version 3.2.8, The People’s Hospital of Lishui, China). The one-way ANOVA and a Dunnet’s multiple range test were used for the statistical comparisons within groups with SPSS software (Version 25.0; SPSS Inc.). Statistical significance was set at p < 0.05.

[3] = parameters: method as in Ma et al., 2017; conditions: following the initial dose of 80–400 mg pyrotinib; ref Ma et al., 2017; cited from earlier work
[4] = test system: rat liver microsomes (RLMs); experiment: Michaelis-Menten kinetics of pyrotinib metabolism in RLMs; assay type: in vitro ADME, Sprague-Dawley (SD) rat; conditions: pyrotinib 0.5–25 μM in RLMs
Method: The rats were anesthetized with 10% chloral hydrate after 12 h of starvation. […] The rat liver tissue was then accurately removed and transferred to Petri dishes at 0–4°C. The tissues were homogenized in 0.15 mol/L KCl-PBS buffer and stored at 4°C. The homogenate (CR30NX, Eppendorf, Germany) was centrifuged at 9000 rpm at 4°C for 30 min. The supernatant was transferred to another tube and was centrifuged at 105000 rpm at 4°C for 60 min. The precipitate containing liver microsomes was removed and suspended in 0.15 mol/L KCl-PBS buffer (containing 0.25 mol/L sucrose) and stored at −80°C for later use. The liver microsomal concentration was 8.838 mg/ml after the determination with the BCA protein quantification kit (Thermo Scientific, Waltham, MA, United States). […]
GraphPad Prism 7.0 software (GraphPad Software Inc.) was used to calculate the enzyme kinetic parameters of substrates which include Vmax, Km, IC50, Ki, and αKi values. […] The PK characteristics, maximal plasma concentration (Cmax), time to peak plasma concentration (Tmax), apparent volume of distribution (Vz/F), area under the plasma concentration-time curve (AUC), elimination half-life (t1/2), plasma clearance (Cl/F), and mean residence time (MRT), were calculated using DAS (Drug and Statistics) software (Version 3.2.8, The People’s Hospital of Lishui, China). […]

[5] = test system: pyrotinib metabolism in rat liver microsomes (RLMs); experiment: In vitro drug-drug interaction study: azole inhibition of pyrotinib metabolism (M1 formation) in RLMs; assay type: in vitro ADME, Sprague-Dawley (SD) rat
Method: The rats were anesthetized with 10% chloral hydrate after 12 h of starvation. […] The rat liver tissue was then accurately removed and transferred to Petri dishes at 0–4°C. The tissues were homogenized in 0.15 mol/L KCl-PBS buffer and stored at 4°C. The homogenate (CR30NX, Eppendorf, Germany) was centrifuged at 9000 rpm at 4°C for 30 min. The supernatant was transferred to another tube and was centrifuged at 105000 rpm at 4°C for 60 min. The precipitate containing liver microsomes was removed and suspended in 0.15 mol/L KCl-PBS buffer (containing 0.25 mol/L sucrose) and stored at −80°C for later use. The liver microsomal concentration was 8.838 mg/ml after the determination with the BCA protein quantification kit (Thermo Scientific, Waltham, MA, United States).
Waters Acquity UPLC I-Class (Waters, USA) was used to separate pyrotinib and midazolam. A binary solvent manager (BSM) and sample manager with a flow-through needle (SM-FTN) were used in the UPLC system. The metabolites’ effective separation was achieved using Acquity UPLC HSS T3 (100 × 2.1 mm, 1.8 μm particle size) (Waters Corporation, Milford, MA, USA) with a mobile phase of acetonitrile (solvent A) and 0.1% formic acid water containing 20 mmol ammonium acetate (solvent B). The gradient program was set as following: 0–0.3 min 10–30% A; 0.3–1 min 30–95% A; 1–2 min 95% A; 2–2.3 min 95–10% A. The mobile phase’s flow rate was 0.4 mL/min, the column temperature was set as 40 °C, and the injection volume was 2 μL. The XEVO TQD triple quadrupole mass spectrometer was equipped with an electrospray ionization (ESI) source, and the multiple reaction monitoring (MRM) mode was selected for quantification. The data were collected using the Mass lynx 4.1 software (Waters Corp.). Mass spectral data were obtained in positive electrospray mode (ESI+) in MRM mode. Nitrogen was used as desolvation (1000 L/h) and cone gases (50 L/h). The ion monitoring voltage conditions were as follows: capillary voltage, 2.5 kV; source temperature, 150°C; desolvation temperature, 500°C. Various reaction monitoring methods were used for quantitative analysis.
200 µl of the incubation mixture was set up as following: 0.3 mg/ml RLMs, 100 mM potassium phosphate buffer (pH 7.4), 1 mM NADPH, and three azole antifungal drugs. […] For fluconazole and itraconazole, the concentrations of them were all adjusted to 0.01, 0.1, 1, 5, 10, 50, and 100 µM. […] The ingredients were combined and pre-warmed for 5 min at 37°C. The reaction was initiated with NADPH and incubated at 37°C for 30 min. Then, 200 µl of acetonitrile-midazolam solution (containing midazolam 200 ng/ml) was added and the mixture was vortexed for 2 min to stop the reaction. After been centrifuged at 13000 rpm for 5 min, 2 µl aliquot of the supernatant was then used for the UPLC-MS/MS analysis.
GraphPad Prism 7.0 software (GraphPad Software Inc.) was used to calculate the enzyme kinetic parameters of substrates which include Vmax, Km, IC50, Ki, and αKi values. The enzyme inhibition mode was obtained using the Linear Lineweaver-Burk plots. The PK characteristics, maximal plasma concentration (Cmax), time to peak plasma concentration (Tmax), apparent volume of distribution (Vz/F), area under the plasma concentration-time curve (AUC), elimination half-life (t1/2), plasma clearance (Cl/F), and mean residence time (MRT), were calculated using DAS (Drug and Statistics) software (Version 3.2.8, The People’s Hospital of Lishui, China). The one-way ANOVA and a Dunnet’s multiple range test were used for the statistical comparisons within groups with SPSS software (Version 25.0; SPSS Inc.). Statistical significance was set at p < 0.05.

[6] = 4°C, 24 h, high concentration (pyrotinib 4500, pyrotinib M1 0.75 μM)
[7] = 4°C, 24 h, low concentration (pyrotinib 15, pyrotinib M1 0.015 μM)
[8] = 4°C, 24 h, medium concentration (pyrotinib 150, pyrotinib M1 0.15 μM)
[9] = Room temperature, 6 h, high concentration (pyrotinib 4500, pyrotinib M1 0.75 μM)
[10] = Room temperature, 6 h, low concentration (pyrotinib 15, pyrotinib M1 0.015 μM)
[11] = Room temperature, 6 h, medium concentration (pyrotinib 150, pyrotinib M1 0.15 μM)
[12] = −80°C, 7 days, high concentration (pyrotinib 4500, pyrotinib M1 0.75 μM)
[13] = −80°C, 7 days, low concentration (pyrotinib 15, pyrotinib M1 0.015 μM)
[14] = −80°C, 7 days, medium concentration (pyrotinib 150, pyrotinib M1 0.15 μM)
[15] = after 40 mg/kg fluconazole for 7 days
[16] = after 40 mg/kg itraconazole for 7 days
[17] = after 40 mg/kg ketoconazole for 7 days
[18] = RLMs, pyrotinib 1, 2, 4, 8 µM, Lineweaver-Burk analysis

Stability in rat plasma, RE [1, 6]: 103.58%
Stability in rat plasma, RE [1, 7]: 104.44%
Stability in rat plasma, RE [1, 8]: 108.67%
Stability in rat plasma, RE [1, 9]: 108.42%
Stability in rat plasma, RE [1, 10]: 102.22%
Stability in rat plasma, RE [1, 11]: 102.44%
Stability in rat plasma, RE [1, 12]: 104.47%
Stability in rat plasma, RE [1, 13]: 109.33%
Stability in rat plasma, RE [1, 14]: 107.56%
SMILES: CCOc1cc2ncc(C#N)c(Nc3ccc(O)c(Cl)c3)c2cc1NC(=O)/C=C/[C@@H]1CCCN1C [Pyrotinib M1, O-depicolyl pyrotinib]

AUC(0-inf) [2, 15]: 29200 ng·h/mL
AUC(0-t) [2, 15]: 29100 ng·h/mL
CL/F [2, 15]: 4.83 mL/min/kg
Cmax [2, 15]: 4290 ng/mL
Vd/F [2, 15]: 1.09 ± 0.21 L/kg
AUC(0-inf) [2, 16]: 18000 ng·h/mL
AUC(0-t) [2, 16]: 18000 ng·h/mL
CL/F [2, 16]: 7.5 mL/min/kg
Cmax [2, 16]: 3000 ng/mL
Vd/F [2, 16]: 1 ± 0.58 L/kg
AUC(0-inf) [2, 17]: 36500 ng·h/mL
AUC(0-t) [2, 17]: 36300 ng·h/mL
CL/F [2, 17]: 3.83 mL/min/kg
Cmax [2, 17]: 4680 ng/mL
Vd/F [2, 17]: 0.89 ± 0.24 L/kg
AUC(0-inf) ([2]; control group (0.5% CMC-Na)): 17800 ng·h/mL
AUC(0-t) ([2]; control group (0.5% CMC-Na)): 17800 ng·h/mL
CL/F ([2]; control group (0.5% CMC-Na)): 7.67 mL/min/kg
Cmax ([2]; control group (0.5% CMC-Na)): 3060 ng/mL
Vd/F ([2]; control group (0.5% CMC-Na)): 0.81 ± 0.25 L/kg
MRT(0-t) [2, 15]: 5.28 ± 0.24 H
MRT(0-∞) [2, 15]: 5.37 ± 0.27 H
Tmax [2, 15]: 3.83 ± 0.41 H
t1/2 [2, 15]: 2.66 ± 0.15 H
MRT(0-t) [2, 16]: 4.55 ± 0.36 H
MRT(0-∞) [2, 16]: 4.56 ± 0.37 H
Tmax [2, 16]: 4.00 ± 1.10 H
t1/2 [2, 16]: 1.47 ± 0.63 H
MRT(0-t) [2, 17]: 5.38 ± 0.38 H
MRT(0-∞) [2, 17]: 5.47 ± 0.38 H
Tmax [2, 17]: 4.00 ± 1.10 H
t1/2 [2, 17]: 2.66 ± 0.20 H
MRT(0-t) ([2]; control group (0.5% CMC-Na)): 4.32 ± 0.40 H
MRT(0-∞) ([2]; control group (0.5% CMC-Na)): 4.32 ± 0.42 H
Tmax ([2]; control group (0.5% CMC-Na)): 3.50 ± 1.23 H
t1/2 ([2]; control group (0.5% CMC-Na)): 1.26 ± 0.54 H
decrease of Cl/F compared to the control group ([2]; coadministrated with ketoconazole): approximately 50%
decrease of Cl/F compared with control group ([2]; fluconazole group): 0.37 fold
increase of AUC(0-t) compared with control group ([2]; fluconazole group): 0.63 fold
increase of Cmax compared with control group ([2]; fluconazole group): 0.40 fold
decrease of Cl/F compared with control group ([2]; ketoconazole group): 0.50 fold
increase of AUC(0-t) compared with control group ([2]; ketoconazole group): 1.04 fold
increase of Cmax compared with control group ([2]; ketoconazole group): 0.53 fold
Km [4]: 4.09 µM
Stability in rat plasma, RE [1, 6]: 101.04%
Stability in rat plasma, RE [1, 7]: 102.40%
Stability in rat plasma, RE [1, 8]: 107.05%
Stability in rat plasma, RE [1, 9]: 103.56%
Stability in rat plasma, RE [1, 10]: 105.41%
Stability in rat plasma, RE [1, 11]: 106.18%
Stability in rat plasma, RE [1, 12]: 100.79%
Stability in rat plasma, RE [1, 13]: 98.95%
Stability in rat plasma, RE [1, 14]: 108.01%
SMILES: CCOc1cc2ncc(C#N)c(Nc3ccc(OCc4ccccn4)c(Cl)c3)c2cc1NC(=O)/C=C/[C@H]1CCCN1C [pyrotinib, Pyrotinib]
mean terminal half-life (t1/2) [3]: 11.4 to 15.9 h
time required to attain maximum plasma concentration (Tmax) [3]: 3 to 5 h
Vmax [4]: 58.33 pmol/min/mg protein

IC50 ([5]; 0.3 mg/ml RLMs, 1 mM NADPH, 37°C, 30 min, n = 3): 11.6 µM
Ki [5, 18]: 15.1 µM
αKi [5, 18]: 19.01 µM
SMILES: OC(Cn1cncn1)(Cn1cncn1)c1ccc(F)cc1F [fluconazole, Fluconazole]
